# Measured values as given in patent publication US20110079773A1, “Selectively Functionalized Rylene Imides and Diimides” (priority 2009, published 2011).
# Columns and labels:
# Format in all cases: physicochemical
# Solubility in toluene = experiment: Solubility in toluene
# Experimental: As used herein, a compound can be considered soluble in a solvent when at least 0.1 mg of the compound can be dissolved in 1 mL of the solvent. Examples of common organic solvents include petroleum ethers; acetonitrile; aromatic hydrocarbons such as benzene, toluene, xylene, and mesitylene; ketones such as acetone, and methyl ethyl ketone; ethers such as tetrahydrofuran, dioxane, bis(2-methoxyethyl)ether, diethyl ether, di-isopropyl ether, and t-butyl methyl ether; alcohols such as methanol, ethanol, butanol, and isopropyl alcohol; aliphatic hydrocarbons such as hexanes; esters such as methyl acetate, ethyl acetate, methyl formate, ethyl formate, isopropyl acetate, and butyl acetate; amides such as dimethylformamide and dimethylacetamide; sulfoxides such as dimethylsulfoxide; halogenated aliphatic and aromatic hydrocarbons such as dichloromethane, chloroform, ethylene chloride, chlorobenzene, dichlorobenzene, and trichlorobenzene; and cyclic solvents such as cyclopentanone, cyclohexanone, and 2-methypyrrolidone. In various embodiments, the present compounds can have good solubility in solvents that are aromatic hydrocarbons such as benzene, toluene, xylene, and mesitylene.
# Table 2 below compares the solubilities of several compounds according to the present teachings with their unsubstituted counterparts in toluene.
# [1] = Electrochemistry (redox potentials)
# Experimental: Electrochemical measurements were performed using a CH Instruments Model 622 electrochemical workstation. Measurements for compounds 4, 6, 8, and 10 were performed in dichloromethane containing 0.1 M tetrabutylammonium hexafluorophosphate (TBAPF6) electrolyte. Measurements for 2 were performed in benzonitrile with the same electrolyte. A 1.0 mm diameter platinum disk electrode, platinum wire electrode, and […] reference electrode were employed. The ferrocene/ferrocenium redox couple (Fc/Fc^+, 0.46 V vs. SCE) (see Connelly et al., Chem. Rev., 96: 877-910 (1996)) was used as an internal standard. TBAPF6 was recrystallized twice from ethyl acetate prior to use.
# Alkylation (e.g., substitution of the phenethyl groups) ortho to the imide nitrogen atoms appears to render the present compounds somewhat more difficult to reduce, but easier to oxidize (Table 3). The reduction potentials of the disubstituted compounds (2, 4, and 6) are approximately 130 mV more negative than those of their parent compounds. Correspondingly, the oxidation potential of the disubstituted 6 is 40 mV less positive than that of […]. Tetrasubstituted 8 and 10 have reduction potentials that are more negative by ˜200 mV than their unsubstituted analogs. These shifts in redox potentials reasonably arise from the electron-donating nature of the alkylating (e.g., phenethyl) groups. The oxidation and reduction potentials of all alkylated molecules shift in the same direction by nearly the same amount, such that the corresponding HOMO-LUMO energy gap remains the same, as is reflected in their electronic absorption and emission spectra described below.
# [2] = Steady-state electronic absorption and fluorescence spectroscopy
# Experimental: Steady-state electronic absorption spectra were recorded on a Shimadzu 1601 UV/Vis spectrometer with a 2 mm quartz cuvette. Fluorescence measurements were performed using a PTI Quanta-Master 1 single photon counting spectrofluorimeter in a right angle configuration with a 1 cm quartz cuvette.
# The intensity of the S0→>S1 transition increases with the size of the aromatic core, while the energy decreases. The fluorescence spectrum of each chromophore is shown in FIG. 4b and summarized in Table 4 along with that of compounds 1, 3, 5, 7, and 9. A similar trend with the emission maxima moving to longer wavelengths as the size of the aromatic core increases was observed. The electronic absorption and fluorescence properties of all the alkylated chromophores are very similar to those of the parent compounds. No observable trend is apparent for the slight shifts in λmax; however, with the exception of 2, all alkylated compounds have slightly lower extinction coefficients than their parent compounds. The fluorescence emission maxima of the alkylated compounds (Table 4) are similar to those of the parent compounds as reported in the literature. See Hydlovic et al., Phtochem. Photobiol. A., 112: 197-203 (1998); Licchelli et al., Chem. Eur. J., 8: 5161-5169 (2002); Weil et al., Chem. Eur. J., 8: 4742-4750 (2002); and Sadrai et al., J. Phys. Chem., 96: 7988-7996 (1992).
# [3] = Femtosecond transient absorption (excited-state decay); conditions: transient absorption decay time constant, dry toluene
# Excerpt: Femtosecond transient absorption measurements were made using a Ti:sapphire laser system as detailed in previously reported work. See Kelley et al., J. Am. Chem. Soc., 129: 3173-3181 (2007). The wavelengths used to excite the samples were 390 nm (1-4), 416 nm (5-8), and 650 nm (9 and 10). The instrument response function for the pump-probe experiments is 160 fs. The transient spectra were obtained using 10 s of averaging at a given delay time. Glass cuvettes with a 2 mm pathlength were used and the samples were dissolved in dry toluene and irradiated with 1.0 μJ pulses at the excitation wavelength. Analysis of the kinetic data was performed at multiple wavelengths using a Levenberg-Marquardt nonlinear least-squares fit to a general sum-of-exponentials function with an added Gaussian to account for the finite instrument response.
# The transient absorption spectra of naphthalene monoimide 2, specifically, the S1→>Sn absorption is characterized by a single broad band at 525 nm, which decays monoexponentially with a time constant τD=34 ps. This is similar to the time constant of other NMI compounds and is attributed to rapid intersystem crossing leading to the triplet state of 2. […] The residual 530 nm absorption band decays further with a 175 ps time constant. […]
# [4] = shift versus unsubstituted parent
compound,measurement,setting,value
"CCCCC(CC)CN1C(=O)c2c(CCc3ccccc3)cc3c4cccc5cccc(c6cc(CCc7ccccc7)c(c2c36)C1=O)c54 (stereo not shown) [Compound 6, N-(2′-ethylhexyl)-2,5-bis(phenethyl)perylene-3,4-dicarboximide]",Solubility relative to unsubstituted counterpart,Solubility in toluene,three times more soluble
same,solubility,Solubility in toluene; organic solvent or mixture,6000 µg/mL
same,E^−1/2,"[1]; first reduction potential, dichloromethane, 0.1 M TBAPF6, Fc/Fc+ (0.46 V vs. SCE) internal standard",−1.13^
same,E^+1/2,"[1]; oxidation potential, dichloromethane, 0.1 M TBAPF6, Fc/Fc+ (0.46 V vs. SCE) internal standard",1.37 V
same,E^2−1/2,"[1]; second reduction potential, dichloromethane, 0.1 M TBAPF6",−1.43^
same,Oxidation potential less positive than that of parent,[1]; [4],40 mV
same,Reduction potential more negative than that of parent compound,[1]; [4],approximately 130 mV
same,λmax,[2]; UV-vis absorption in toluene,501 nm
same,E(S1),[2]; determined from the average energy of the absorption and emission maxima,2.43 eV
same,ε,"[2]; extinction coefficient at λmax, toluene",27000 M⁻¹ cm⁻¹
same,λem,"[2]; fluorescence emission maximum, toluene",521^ nm
same,φF,[2]; fluorescence quantum yield,0.98
same,τD,[3],4700 ± 88 ps
